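In this assay, cells in 96-well plates receive the compound at five concentrations for 48 hours. Endpoints are linearly interpolated between the surrounding concentrations. Definition used: TGI = concentration required for complete inhibition of growth.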
What was measured:
Assay in all cases: NCI tumour cell line growth inhibition, 48 h
UO-31 renal = test system: UO-31 renal
MDA-N = test system: MDA-N
UACC-62 melanoma = test system: UACC-62 melanoma
HCT-116 colon = test system: HCT-116 colon
HOP-92 NSCLC = test system: HOP-92 NSCLC
HS 578T breast = test system: HS 578T breast
OVCAR-5 ovarian = test system: OVCAR-5 ovarian
SF-268 CNS = test system: SF-268 CNS
ACHN renal = test system: ACHN renal
HT29 colon = test system: HT29 colon
MOLT-4 leukemia = test system: MOLT-4 leukemia
UACC-257 melanoma = test system: UACC-257 melanoma
OVCAR-8 ovarian = test system: OVCAR-8 ovarian
LOX IMVI melanoma = test system: LOX IMVI melanoma
SN12C renal = test system: SN12C renal
SF-539 CNS = test system: SF-539 CNS
SNB-75 CNS = test system: SNB-75 CNS
M14 melanoma = test system: M14 melanoma
SR leukemia = test system: SR leukemia
EKVX NSCLC = test system: EKVX NSCLC
COLO 205 colon = test system: COLO 205 colon
786-0 renal = test system: 786-0 renal
OVCAR-4 ovarian = test system: OVCAR-4 ovarian
SK-MEL-5 melanoma = test system: SK-MEL-5 melanoma
SK-MEL-2 melanoma = test system: SK-MEL-2 melanoma
HCC-2998 colon = test system: HCC-2998 colon
DU-145 prostate = test system: DU-145 prostate
NCI/ADR-RES ovarian = test system: NCI/ADR-RES ovarian
PC-3 prostate = test system: PC-3 prostate
IGROV1 ovarian = test system: IGROV1 ovarian
SK-OV-3 ovarian = test system: SK-OV-3 ovarian
HOP-62 NSCLC = test system: HOP-62 NSCLC
SF-295 CNS = test system: SF-295 CNS
K-562 leukemia = test system: K-562 leukemia
NCI-H460 lung = test system: NCI-H460 lung
OVCAR-3 ovarian = test system: OVCAR-3 ovarian
TK-10 renal = test system: TK-10 renal
NCI-H23 lung = test system: NCI-H23 lung
SNB-19 CNS = test system: SNB-19 CNS
SK-MEL-28 melanoma = test system: SK-MEL-28 melanoma
KM12 colon = test system: KM12 colon
BT-549 breast = test system: BT-549 breast
A549 NSCLC = test system: A549 NSCLC
U251 CNS = test system: U251 CNS
NCI-H522 lung = test system: NCI-H522 lung
MDA-MB-231 breast = test system: MDA-MB-231 breast
NCI-H226 lung = test system: NCI-H226 lung
A498 renal = test system: A498 renal
CAKI-1 renal = test system: CAKI-1 renal
SW-620 colon = test system: SW-620 colon
MALME-3M melanoma = test system: MALME-3M melanoma
MDA-MB-435 = test system: MDA-MB-435
HCT-15 colon = test system: HCT-15 colon
T-47D breast = test system: T-47D breast
MCF7 breast = test system: MCF7 breast
RXF 393 renal = test system: RXF 393 renal
CCRF-CEM leukemia = test system: CCRF-CEM leukemia
RPMI-8226 leukemia = test system: RPMI-8226 leukemia
HL-60(TB) leukemia = test system: HL-60(TB) leukemia

Structure (SMILES): Cc1ccc2c(c1)C(=O)/C(=C\c1ccccc1)CCS2(=O)=O
- TGI (UO-31 renal): 26.7 µM
- TGI (MDA-N): > 52.4 µM
- TGI (UACC-62 melanoma): 31.9 µM
- TGI (HCT-116 colon): 18.7 µM
- TGI (HOP-92 NSCLC): > 56.9 µM
- TGI (HS 578T breast): > 85.1 µM
- TGI (OVCAR-5 ovarian): > 55.7 µM
- TGI (SF-268 CNS): > 68.7 µM
- TGI (ACHN renal): 24.2 µM
- TGI (HT29 colon): 24.1 µM
- TGI (MOLT-4 leukemia): 87.5 µM
- TGI (UACC-257 melanoma): 31.6 µM
- TGI (OVCAR-8 ovarian): 62.6 µM
- TGI (LOX IMVI melanoma): 44.3 µM
- TGI (SN12C renal): 53.3 µM
- TGI (SF-539 CNS): 29.9 µM
- TGI (SNB-75 CNS): > 58 µM
- TGI (M14 melanoma): > 53.8 µM
- TGI (SR leukemia): > 24.7 µM
- TGI (EKVX NSCLC): > 100 µM
- TGI (COLO 205 colon): 42 µM
- TGI (786-0 renal): 25.2 µM
- TGI (OVCAR-4 ovarian): 46.5 µM
- TGI (SK-MEL-5 melanoma): 29.4 µM
- TGI (SK-MEL-2 melanoma): 89.8 µM
- TGI (HCC-2998 colon): 28.6 µM
- TGI (DU-145 prostate): 21.8 µM
- TGI (NCI/ADR-RES ovarian): > 52.2 µM
- TGI (PC-3 prostate): > 71.1 µM
- TGI (IGROV1 ovarian): 28.7 µM
- TGI (SK-OV-3 ovarian): 60.8 µM
- TGI (HOP-62 NSCLC): > 86 µM
- TGI (SF-295 CNS): 29.6 µM
- TGI (K-562 leukemia): 5.52 µM
- TGI (NCI-H460 lung): 24.9 µM
- TGI (OVCAR-3 ovarian): 39.9 µM
- TGI (TK-10 renal): 30.7 µM
- TGI (NCI-H23 lung): 40.7 µM
- TGI (SNB-19 CNS): 28.2 µM
- TGI (SK-MEL-28 melanoma): > 66.4 µM
- TGI (KM12 colon): 28.2 µM
- TGI (BT-549 breast): > 37.2 µM
- TGI (A549 NSCLC): > 87.8 µM
- TGI (U251 CNS): 31 µM
- TGI (NCI-H522 lung): 14.6 µM
- TGI (MDA-MB-231 breast): 35.5 µM
- TGI (NCI-H226 lung): > 49.9 µM
- TGI (A498 renal): 52.1 µM
- TGI (CAKI-1 renal): 49.9 µM
- TGI (SW-620 colon): 73.5 µM
- TGI (MALME-3M melanoma): 36.5 µM
- TGI (MDA-MB-435): > 61.4 µM
- TGI (HCT-15 colon): 19.7 µM
- TGI (T-47D breast): 49.6 µM
- TGI (MCF7 breast): 18.9 µM

Structure (SMILES): Nc1nc(N)c(N=O)c(Nc2ccc(O)cc2)n1
- TGI (UO-31 renal): > 86.7 µM
- TGI (MDA-N): > 100 µM
- TGI (UACC-62 melanoma): > 100 µM
- TGI (HCT-116 colon): > 100 µM
- TGI (HOP-92 NSCLC): > 100 µM
- TGI (HS 578T breast): 58.8 µM
- TGI (RXF 393 renal): > 100 µM
- TGI (OVCAR-5 ovarian): > 26.1 µM
- TGI (SF-268 CNS): > 83.8 µM
- TGI (ACHN renal): > 86.1 µM
- TGI (HT29 colon): > 100 µM
- TGI (MOLT-4 leukemia): > 60.9 µM
- TGI (UACC-257 melanoma): > 100 µM
- TGI (OVCAR-8 ovarian): > 100 µM
- TGI (LOX IMVI melanoma): > 100 µM
- TGI (SN12C renal): > 100 µM
- TGI (SF-539 CNS): 16.3 µM
- TGI (SNB-75 CNS): > 67.7 µM
- TGI (SR leukemia): 97.7 µM
- TGI (EKVX NSCLC): > 100 µM
- TGI (COLO 205 colon): > 100 µM
- TGI (786-0 renal): > 95.5 µM
- TGI (OVCAR-4 ovarian): > 100 µM
- TGI (SK-MEL-5 melanoma): > 100 µM
- TGI (SK-MEL-2 melanoma): > 100 µM
- TGI (HCC-2998 colon): > 100 µM
- TGI (DU-145 prostate): > 100 µM
- TGI (NCI/ADR-RES ovarian): > 50.4 µM
- TGI (PC-3 prostate): > 100 µM
- TGI (IGROV1 ovarian): 44.8 µM
- TGI (SK-OV-3 ovarian): 45.1 µM
- TGI (HOP-62 NSCLC): > 57.2 µM
- TGI (SF-295 CNS): > 65.1 µM
- TGI (K-562 leukemia): > 92.1 µM
- TGI (NCI-H460 lung): > 100 µM
- TGI (OVCAR-3 ovarian): > 100 µM
- TGI (TK-10 renal): > 100 µM
- TGI (NCI-H23 lung): > 100 µM
- TGI (CCRF-CEM leukemia): > 100 µM
- TGI (SNB-19 CNS): > 100 µM
- TGI (RPMI-8226 leukemia): > 68.2 µM
- TGI (SK-MEL-28 melanoma): > 100 µM
- TGI (KM12 colon): > 100 µM
- TGI (BT-549 breast): > 82.9 µM
- TGI (HL-60(TB) leukemia): > 71.3 µM
- TGI (A549 NSCLC): > 100 µM
- TGI (U251 CNS): > 100 µM
- TGI (NCI-H522 lung): > 56.6 µM
- TGI (MDA-MB-231 breast): > 100 µM
- TGI (NCI-H226 lung): 96 µM
- TGI (A498 renal): > 85.1 µM
- TGI (CAKI-1 renal): > 76.3 µM
- TGI (SW-620 colon): > 100 µM
- TGI (MALME-3M melanoma): > 100 µM
- TGI (MDA-MB-435): > 100 µM
- TGI (HCT-15 colon): > 100 µM
- TGI (T-47D breast): > 96.1 µM

Structure (SMILES): C=C1C(=O)O[C@@H]2[C@H]1C[C@@H](O)[C@H](C)[C@@](O)(C(=O)/C=C/C)[C@H]2OC(=O)C(C)CC (some centres undefined)
- TGI (UO-31 renal): 4.06 µM
- TGI (MDA-N): 10.3 µM
- TGI (UACC-62 melanoma): 32.9 µM
- TGI (HCT-116 colon): 3.58 µM
- TGI (HOP-92 NSCLC): 9.83 µM
- TGI (HS 578T breast): 6.34 µM
- TGI (RXF 393 renal): 5.36 µM
- TGI (OVCAR-5 ovarian): 14.5 µM
- TGI (SF-268 CNS): > 54 µM
- TGI (ACHN renal): 9.89 µM
- TGI (HT29 colon): 5.21 µM
- TGI (MOLT-4 leukemia): > 36.9 µM
- TGI (UACC-257 melanoma): > 39.4 µM
- TGI (OVCAR-8 ovarian): 6.4 µM
- TGI (LOX IMVI melanoma): 12.3 µM
- TGI (SN12C renal): 7.51 µM
- TGI (SF-539 CNS): 15.8 µM
- TGI (SNB-75 CNS): 51.6 µM
- TGI (M14 melanoma): 9.03 µM
- TGI (EKVX NSCLC): 27.3 µM
- TGI (COLO 205 colon): 3.33 µM
- TGI (786-0 renal): 6.91 µM
- TGI (OVCAR-4 ovarian): 22.8 µM
- TGI (SK-MEL-5 melanoma): 21.3 µM
- TGI (SK-MEL-2 melanoma): 84.1 µM
- TGI (HCC-2998 colon): > 67.4 µM
- TGI (DU-145 prostate): 22.8 µM
- TGI (NCI/ADR-RES ovarian): > 67.2 µM
- TGI (PC-3 prostate): 51.5 µM
- TGI (IGROV1 ovarian): 12.8 µM
- TGI (SK-OV-3 ovarian): > 100 µM
- TGI (HOP-62 NSCLC): 49.2 µM
- TGI (SF-295 CNS): > 100 µM
- TGI (K-562 leukemia): 23.6 µM
- TGI (NCI-H460 lung): > 100 µM
- TGI (OVCAR-3 ovarian): 10.4 µM
- TGI (TK-10 renal): 16.7 µM
- TGI (NCI-H23 lung): 18.2 µM
- TGI (CCRF-CEM leukemia): 0.229 µM
- TGI (SNB-19 CNS): > 68.8 µM
- TGI (RPMI-8226 leukemia): 18.2 µM
- TGI (SK-MEL-28 melanoma): 24.2 µM
- TGI (KM12 colon): 33.1 µM
- TGI (BT-549 breast): 13.3 µM
- TGI (A549 NSCLC): 33 µM
- TGI (U251 CNS): 26.6 µM
- TGI (NCI-H522 lung): 3.42 µM
- TGI (MDA-MB-231 breast): 19.6 µM
- TGI (NCI-H226 lung): > 100 µM
- TGI (A498 renal): 37.7 µM
- TGI (CAKI-1 renal): 2.91 µM
- TGI (SW-620 colon): 6.65 µM
- TGI (MALME-3M melanoma): 4.42 µM
- TGI (MDA-MB-435): 11.1 µM
- TGI (HCT-15 colon): 7.97 µM
- TGI (T-47D breast): 71.8 µM
- TGI (MCF7 breast): 24.9 µM

From PubChem BioAssay (NCI)
